{
  "source": "patent US20210009959A1",
  "about": "“METHODS FOR ENHANCING OSTEOGENIC DIFFERENTIATION USING VITAMIN D” (priority 2019, published 2021)",
  "format_in_all_cases": "cell-based",
  "key": {"[1]": {"tested_on": "human adipose stem cells (hASCs)", "assay": "hASC attachment to BCP20/80 scaffolds after calcitriol pre-treatment", "protocol": "In one embodiment, a method of static culture of hASCs by pre-treatment with vitamin D3 (calcitriol) and attachment of hASCs to the scaffold used in one-step surgical procedure comprises the following steps. At one step, isolating hASCs as explained in FIG. 1. In an embodiment, the hASCs from three donors at passage 3 are used for further processing. As an optional step, the obtained hASCs are either or not incubated for a period of about 30 mins with low concentrated calcitriol of about 10 nM at room temperature. At next step, the calcitriol treated hASCs are washed twice with Phosphate Buffered Saline (PBS) to remove calcitriol. Further, the washed hASCs are centrifuged and resuspended in Dulbecco's Minimum Essential Medium (DMEM) without any supplements. At another step, the resuspended cells are seeded on the scaffold and allowed to attach to the scaffolds for a period of about 30 minutes. At next step, the scaffolds with attached cells are transferred to 12-well plates with Costar® Transwell® containers (Corning Life Sciences, Lowell, Mass., USA) containing expansion medium (DMEM) supplemented with 10% Fetal Clone I (FCI), antibiotics (1% penicillin/streptomycin/fungizone (PSF)), 50 μM ascorbic acid (Merck, Darmstadt, Germany), and 10 mM β-glycerol phosphate (Merck, Darmstadt, Germany) (PLGA/β-TCP). […]"}, "[2]": {"tested_on": "human adipose stem cells (hASCs)", "assay": "ALP staining using NBT/BCIP in hASCs", "conditions": "30 min treatment; 2 and 3 weeks of culture; compared to continuous treatment", "source_text": "Referring to FIG. 6, the effect of calcitriol treatment on ALP activity in hASCs by ALP staining using nitro blue tetrazolium chloride/5-bromo-4-chloro-3-indolyl phosphate (NBT/BCIP) is disclosed. […] The increase in ALP activity is confirmed by ALP staining after 14 days of culture. […] The cell distribution is confirmed by 4′,6-diamidino-2-phenylindole (DAPI) staining."}, "[3]": {"tested_on": "human adipose stem cells (hASCs)", "assay": "ALP activity of hASCs seeded in BCP scaffold", "protocol": "In one embodiment, a method of static culture of hASCs by pre-treatment with vitamin D3 (calcitriol) and attachment of hASCs to the scaffold used in one-step surgical procedure comprises the following steps. At one step, isolating hASCs as explained in FIG. 1. In an embodiment, the hASCs from three donors at passage 3 are used for further processing. As an optional step, the obtained hASCs are either or not incubated for a period of about 30 mins with low concentrated calcitriol of about 10 nM at room temperature.\nAt next step, the calcitriol treated hASCs are washed twice with Phosphate Buffered Saline (PBS) to remove calcitriol. Further, the washed hASCs are centrifuged and resuspended in Dulbecco's Minimum Essential Medium (DMEM) without any supplements. At another step, the resuspended cells are seeded on the scaffold and allowed to attach to the scaffolds for a period of about 30 minutes. At next step, the scaffolds with attached cells are transferred to 12-well plates with Costar® Transwell® containers (Corning Life Sciences, Lowell, Mass., USA) containing expansion medium (DMEM) supplemented with 10% Fetal Clone I (FCI), antibiotics (1% penicillin/streptomycin/fungizone (PSF)), 50 μM ascorbic acid (Merck, Darmstadt, Germany), and 10 mM β-glycerol phosphate (Merck, Darmstadt, Germany) (PLGA/β-TCP). At next step, the hASCs seeded scaffolds are incubated at 5% CO2 in a humidified incubator at predefined temperature of about 37° C. for a period of about 3 weeks.\nReferring to FIGS. 5A and 5B, the effects of calcitriol treatment on ALP activity of hASCs, where the calcitriol pre-treatment is conducted for a short period of 30 minutes and a long period of about 3 weeks. […] The ALP activity of continuous treated cells with calcitriol is increased by 2.6-fold relative to non-treated cells after 2 weeks of culture."}, "[4]": {"tested_on": "human adipose stem cells (hASCs)", "assay": "Osteogenic and angiogenic gene expression of hASCs in 3D PLGA/β-TCP scaffold, dynamic and static culture", "protocol": "In one embodiment, dynamic culture of pre-treated hASCs with calcitriol, using the modified perfusion bioreactor comprises the following steps. In one embodiment, the scaffolds are 3D PLGA/β-TCP. The modified perfusion bioreactor […] comprises five scaffolds, loaded with a total of 70 ml of culture medium as shown in FIG. 2. At another step, 30 ml of the culture medium is replaced twice a week for a total period of two weeks. At another step, the culture medium in the modified perfusion bioreactor 200 is distributed to the five scaffolds with the flow rate of about 5 ml/min using the peristaltic pump 202.\nIn one embodiment, the method of static culture of pre-treated hASCs is continued in a flask bioreactor with the same volume of culture medium utilized in the dynamic culture. Further, the methods of culturing the hASCs are divided into different groups. In one embodiment, the methods of culturing of hASCs are divided into four groups such as, static culture of non-treated hASCs, static culture of pre-treated hASCs with calcitriol, dynamic culture of non-treated hASCs and dynamic culture of pre-treated hASCs with calcitriol.\nReferring to FIGS. 11A to 11I, the effects of perfusion culture of hASCs on osteogenic and angiogenic differentiation of hASCs are disclosed, where the hASCs are seeded in 3D PLGA/β-TCP scaffold. In one embodiment, the hASCs are pre-treated with or without 10 nM of calcitriol for 30 minutes and cultured in the modified perfusion bioreactor (dynamic culture) and flask bioreactor (static culture)."}, "[5]": {"conditions": "14 days, perfusion culture of pre-treated vs perfusion culture of non-treated hASCs"}, "[6]": {"conditions": "14 days, perfusion culture of pre-treated vs static culture of pre-treated hASCs"}, "[7]": {"conditions": "day 7, dynamic culture of pre-treated vs perfusion culture of non-treated hASCs"}, "[8]": {"conditions": "day 7, dynamic culture of pre-treated vs static culture of treated hASC"}},
  "data": [
    {"smiles": "C=C1/C(=C\\C=C2/CCC[C@]3(C)[C@@H]([C@H](C)CCCC(C)(C)O)CC[C@@H]23)C[C@@H](O)C[C@@H]1O", "note": "[calcitriol, 1,25-dihydroxyvitamin D3]", "values": [
      {"measurement": "cell attachment to BCP scaffolds", "setting": "[1]; 30 min pre-treatment with 10 nM calcitriol (non-treated 54%)", "result": 83, "unit": "%"},
      {"measurement": "cell attachment to BCP scaffolds, increase", "setting": "[1]; 30 min pre-treatment with 10 nM calcitriol, vs non-treated cells", "result": 1.5, "unit": "fold"},
      {"measurement": "ALP activity by ALP staining (NBT/BCIP)", "setting": "[2]", "result": "notably increases"},
      {"measurement": "ALP activity, increase", "setting": "[3]; 30 min pre-treatment, after 2 weeks of culture, vs non-treated cells", "result": 18.5, "unit": "fold"},
      {"measurement": "ALP activity, increase", "setting": "[3]; 30 min pre-treatment, after 3 weeks of culture", "result": 2.4, "unit": "fold"},
      {"measurement": "ALP activity, increase", "setting": "[3]; continuous treatment with 10 nM, after 2 weeks, vs non-treated cells", "result": 2.6, "unit": "fold"},
      {"measurement": "ALP activity, change", "setting": "[3]; continuous treatment with 10 nM, at 3 weeks", "result": 0.4, "unit": "fold"},
      {"measurement": "CYP27B1 gene expression, increase", "setting": "[4]; [5]", "result": 5.3, "unit": "fold"},
      {"measurement": "Endotelin-1 gene expression, increase", "setting": "[4]; [5]", "result": 4, "unit": "fold"},
      {"measurement": "Ki-67 gene expression, increase", "setting": "[4]; [5]", "result": 1.8, "unit": "fold"},
      {"measurement": "OCN gene expression, increase", "setting": "[4]; [5]", "result": 2.1, "unit": "fold"},
      {"measurement": "RUNX2 gene expression, increase", "setting": "[4]; [5]", "result": 6.4, "unit": "fold"},
      {"measurement": "SPARC gene expression, increase", "setting": "[4]; [5]", "result": 2.8, "unit": "fold"},
      {"measurement": "VEGF165 gene expression, increase", "setting": "[4]; [5]", "result": 3.1, "unit": "fold"},
      {"measurement": "VEGF189 gene expression, increase", "setting": "[4]; [5]", "result": 2.5, "unit": "fold"},
      {"measurement": "CYP27B1 gene expression, increase", "setting": "[4]; [6]", "result": 15.4, "unit": "fold"},
      {"measurement": "Endotelin-1 gene expression, increase", "setting": "[4]; [6]", "result": 35, "unit": "fold"},
      {"measurement": "Ki-67 gene expression, increase", "setting": "[4]; [6]", "result": 5.1, "unit": "fold"},
      {"measurement": "OCN gene expression, increase", "setting": "[4]; [6]", "result": 4.1, "unit": "fold"},
      {"measurement": "OPN gene expression, increase", "setting": "[4]; [6]", "result": 60, "unit": "fold"},
      {"measurement": "RUNX2 gene expression, increase", "setting": "[4]; [6]", "result": 82.8, "unit": "fold"},
      {"measurement": "SPARC gene expression, increase", "setting": "[4]; [6]", "result": 33.2, "unit": "fold"},
      {"measurement": "VEGF165 gene expression, increase", "setting": "[4]; [6]", "result": 1.4, "unit": "fold"},
      {"measurement": "VEGF189 gene expression, increase", "setting": "[4]; [6]", "result": 5.7, "unit": "fold"},
      {"measurement": "OPN gene expression (level)", "setting": "[4]; day 7, dynamic culture of pre-treated hASC", "result": 0.1084},
      {"measurement": "Endotelin-1 gene expression, increase", "setting": "[4]; [7]", "result": 120.9, "unit": "fold"},
      {"measurement": "Ki-67 gene expression, increase", "setting": "[4]; [7]", "result": 45.9, "unit": "fold"},
      {"measurement": "OCN gene expression, increase", "setting": "[4]; [7]", "result": 1.8, "unit": "fold"},
      {"measurement": "RUNX2 gene expression, increase", "setting": "[4]; [7]", "result": 186.5, "unit": "fold"},
      {"measurement": "SPARC gene expression, increase", "setting": "[4]; [7]", "result": 3, "unit": "fold"},
      {"measurement": "VEGF165 gene expression, increase", "setting": "[4]; [7]", "result": 3, "unit": "fold"},
      {"measurement": "VEGF189 gene expression, increase", "setting": "[4]; [7]", "result": 3.4, "unit": "fold"},
      {"measurement": "Endotelin-1 gene expression, increase", "setting": "[4]; [8]", "result": 5.4, "unit": "fold"},
      {"measurement": "OCN gene expression, increase", "setting": "[4]; [8]", "result": 7.1, "unit": "fold"},
      {"measurement": "OPN gene expression, increase", "setting": "[4]; [8]", "result": 47.3, "unit": "fold"},
      {"measurement": "SPARC gene expression, increase", "setting": "[4]; [8]", "result": 7.5, "unit": "fold"},
      {"measurement": "VEGF165 gene expression, increase", "setting": "[4]; [8]", "result": 9.8, "unit": "fold"},
      {"measurement": "VEGF189 gene expression, increase", "setting": "[4]; [8]", "result": 8.8, "unit": "fold"},
      {"measurement": "OPN gene expression (level)", "setting": "[4]; day 7, static culture of treated hASC", "result": 0.002291}
    ]}
  ]
}
